Measured values reported in article PMC7160362, “A Polyamine-Based Dinitro-Naphthalimide Conjugate as Substrates for Polyamine Transporters Preferentially Accumulates in Cancer Cells and Minimizes Side Effects in vitro and in vivo” (Frontiers in Chemistry, 2020).

Tests used:
HCC xenografts = assay: In vivo antitumor assay, HCC xenografts; details: for tumor suppression (inhibition rate, tumor weight): tail vein, once every day for 7 days
Source text: Healthy BALB/c mice (Cat. SCXK 2016-0006, Beijing, China) aged 5 weeks were used for the determination of anticancer activity. We obtained BALB/c mice from the Laboratory Animal Center, Academy of Military Medical Science. They were raised in compliance with the Guide for the Care and Use of Laboratory Animals. The weight of healthy BALB/c mice is 18–22 g.
We firstly injected HCC cells with 1 × 10^6 cells per mouse to determine the anticancer activity. After a week, the tumors increased to 80–120 mm^3. The mice were divided into four groups for 5c (3 mg/kg), 5c (5 mg/kg), the positive control amonafide (5 mg/kg), or the negative control physiological saline. We injected 5c or amonafide via the tail vein every day for a total of seven treatments. Body weight was determined every day. And then the mice were sacrificed after 7 days. The tumor tissues were weighed and the inhibition rate [((average tumor weight of negative control group – average tumor weight of the drug treated or positive control group)/average tumor weight of control group) × 100] was calculated. The organ index [(organ weight/body weight) × 100%] was also counted including heart, liver, kidney, lung, and spleen at the last day. Both 5c and amonafide were dissolved in glucose injection. And they were used immediately after preparation.
The highest FI levels in Snu-739 also indicate a significant therapy for HCC. Therefore, HCC animal models were used to test the in vivo antitumor activities. Mice bearing HCC xenografts were treated with 5c (3 mg/kg), 5c (5 mg/kg), the positive control amonafide (5 mg/kg), and normal saline (negative control) once every day for 7 days by tail vein (Figure 3).

[1] = tested on: six cancer cell lines (Snu-368, Snu-739, MCF-7, MDA-MB-231, A549, A549cisR); assay: MTT cytotoxicity assay, whole panel; format: cell-based; details: versus amonafide and cisplatin
Description: (§1) We incubated hepatic carcinoma (Snu-368 and Snu-739), breast carcinoma (MDA-MB-231 and MCF-7), cisplatin-sensitive lung cancer cells A549, and cisplatin-resistant lung cancer cells A549cisR in 96-well plates in a 5% CO2 atmosphere at 37°C for 24 h (5,000 cells/well). After adding drugs in freshly prepared culture medium (100 μl) and incubating for another 48 h, we added 20 μl MTT (5 mg/ml) and incubated for another 3 h. At last, after the medium was removed, 150 μl DMSO was added. By using a Bio-Rad 680 microplate reader, the absorbance was measured at 570 nm and the IC50 values were calculated using the GraphPad Prism software based on three parallel experiments.
(§2) In vitro assays were firstly conducted to evaluate the inhibitory effect of polyamine-based naphthalimide conjugates 5a-5c, 7a-7b, and 11a-11b on six cancer cell lines, namely, Snu-368 and Sun-739 (hepatoma cell line), MCF-7 (breast carcinoma), MDA-MB-231 (triple negative breast cancer), cisplatin-sensitive lung cancer A549, and resistant A549cisR cells by using traditional MTT tests. Two classic antitumor agents in clinic trials, amonafide and cisplatin, were chosen as the reference drugs (Table 1). The preliminary structure–activity relationship (SAR) can be obtained from the in vitro biological results.

[2] = tested on: polyamine oxidase (PAO) in Snu-368 cells; assay: PAO assay kit; format: cell-based; details: Snu-368, 10 μM, 24 h
Source text: (§3) We measured the total PAO level using a PAO assay kit according to our previous report (Liu et al., [2019]) (Hepeng Biotechnology, Cat. HEPENGBIO156).

[3] = tested on: polyamine oxidase (PAO) in Snu-739 cells; assay: PAO assay kit; format: cell-based; details: Snu-739, 10 μM, 24 h
Source text: as §3

Snu-739 cells = assay: Annexin V-FITC/PI staining, flow cytometry; format: cell-based
Description: Annexin V-FITC/PI staining was used to detect the apoptosis of Snu-739 cells by FCM (flow cytometry). Firstly, we plated the cells in six-well plates (1 × 10^5 cells/well). 5c 10 μM and amonafide 10 μM were added and incubated for 24 h. And then we harvested the cells and washed three times with PBS. Then the protocol was stained according to our previous report (Wang et al., [2012]; Li et al., [2016], [2018]; Dai et al., [2017a]; Ma et al., [2017a],[b]; Ma et al., [2018]; Liu et al., [2019]) and was performed by FCM (BD Biosciences, San Jose, CA, USA).

[4] = tested on: Snu-739 cells (hepatic carcinoma); assay: MTT cytotoxicity assay; format: cell-based
Description: as §1, §2

[5] = tested on: cisplatin-sensitive lung cancer cells A549; assay: MTT cytotoxicity assay; format: cell-based; details: A549
Description: as §1, §2

[6] = tested on: MDA-MB-231 cells (triple negative breast cancer); assay: MTT cytotoxicity assay; format: cell-based; details: MDA-MB-231
Description: as §1, §2

[7] = tested on: Snu-368 cells (hepatic carcinoma); assay: MTT cytotoxicity assay; format: cell-based
Description: as §1, §2

[8] = tested on: cisplatin-resistant lung cancer cells A549cisR; assay: MTT cytotoxicity assay; format: cell-based
Description: as §1, §2

[9] = tested on: MCF-7 cells (breast carcinoma); assay: MTT cytotoxicity assay; format: cell-based
Description: as §1, §2

[10] = tested on: HL-7702 (normal liver cell); assay: MTT cytotoxicity on matched normal cells; format: cell-based
Description: as §1
The selectivity for cancer cells over normal healthy cells is important for ideal anticancer agents, thereby mitigating undesired toxic side effects associated with chemotherapy. The selectivity of polyamine-based dinitro-naphthalimide conjugates 5a-5c was evaluated by Snu-368 and Snu-739 (hepatic carcinoma), and the matched normal cells HL-7702 (normal liver cell). Moreover, dinitro-naphthalimide conjugates 5a-5c (SI 1.94–7.47) show lower cytotoxicity in normal cells.

**Q.** How did the “tumor suppression (inhibition rate, tumor weight)” value (HCC xenografts; 3 mg/kg) turn out when `O=C1c2cc([N+](=O)[O-])cc3cc([N+](=O)[O-])cc(c23)C(=O)N1CCCCNCCCNC1CC1` [5c] was run?
**A.** 57.97%

**Q.** And the “tumor suppression (inhibition rate, tumor weight)” value (HCC xenografts; 5 mg/kg)?
**A.** 65.90%

**Q.** What about the average tumor volume (HCC xenografts; day 7, control group 900 mm^3, dose not stated) of the same compound?
**A.** 480 mm^3

**Q.** And the “organ weight indexes / toxicological profile in vivo” value (HCC xenografts; heart, liver, kidney, lung, spleen, end of experiment)?
**A.** no obvious pathological changes

**Q.** What about the “FI (fold increase), range over cell lines” value [1] of the same compound?
**A.** 3.59–48.63

**Q.** And the “relative PAO activity versus control group” value [2]?
**A.** 1.5–2 folds

**Q.** And the “relative PAO activity versus control group” value [3]?
**A.** 1.5–2 folds

**Q.** And the early apoptotic cells (Snu-739 cells; 10 μM, 24 h)?
**A.** 35.00%

**Q.** And the late apoptotic cells (Snu-739 cells; 10 μM, 24 h)?
**A.** 38.50%

**Q.** And the apoptotic cells (Snu-739 cells; total of early and late)?
**A.** 73.50%

**Q.** What about the IC50 ([4]; SNU-739, MTT, 48 h) of the same compound?
**A.** 0.76 ± 0.05 µM

**Q.** What about the “FI (fold increase) IC50(amonafide)/IC50(5c)” value ([4]; Snu-739) of the same compound?
**A.** 17.08

**Q.** What about the “FI (fold increase) IC50(cisplatin)/IC50(5c)” value ([4]; Snu-739) of the same compound?
**A.** 13.18

**Q.** And the “FI (fold increase) IC50(amonafide)/IC50(5c)” value [5]?
**A.** 3.59

**Q.** What about the “FI (fold increase) IC50(cisplatin)/IC50(5c)” value [5] of the same compound?
**A.** 5.73

**Q.** What about the IC50 ([5]; Homo sapiens, MTT, 48 h) of the same compound?
**A.** 1.92 ± 0.23 µM

**Q.** And the IC50 ([6]; Homo sapiens, MTT, 48 h)?
**A.** 1.33 ± 0.12 µM

**Q.** What about the “FI (fold increase) IC50(amonafide)/IC50(5c)” value [6] of the same compound?
**A.** 11.20

**Q.** What about the “FI (fold increase) IC50(cisplatin)/IC50(5c)” value [6] of the same compound?
**A.** 12.02

**Q.** And the IC50 ([7]; MTT, 48 h)?
**A.** 1.09 ± 0.1 µM

**Q.** And the “FI (fold increase) IC50(amonafide)/IC50(5c)” value ([7]; Snu-368)?
**A.** 12.83

**Q.** What about the “FI (fold increase) IC50(cisplatin)/IC50(5c)” value ([7]; Snu-368) of the same compound?
**A.** 15.02

**Q.** What about the “FI (fold increase) IC50(amonafide)/IC50(5c)” value ([8]; A549cisR) of the same compound?
**A.** 13.23

**Q.** And the “FI (fold increase) IC50(cisplatin)/IC50(5c)” value ([8]; A549cisR)?
**A.** 48.63

**Q.** And the “RF (resistance factor)” value ([8]; IC50 in A549cisR cells/IC50 in A549 cells)?
**A.** 0.43

**Q.** What about the IC50 ([8]; MTT, 48 h) of the same compound?
**A.** 0.83 ± 0.08 µM

**Q.** What about the “FI (fold increase) amonafide/5c in RF column” value ([8]; ratio of RF values) of the same compound?
**A.** 3.70

**Q.** What about the IC50 ([9]; Homo sapiens, MCF7, MTT, 48 h) of the same compound?
**A.** 1.35 ± 0.15 µM

**Q.** And the “FI (fold increase) IC50(amonafide)/IC50(5c)” value ([9]; MCF-7)?
**A.** 4.36

**Q.** And the “FI (fold increase) IC50(cisplatin)/IC50(5c)” value ([9]; MCF-7)?
**A.** 7.11

**Q.** And the “SI (selectivity index) IC50 in HL-7702/IC50 in Snu-368” value [10]?
**A.** 5.21

**Q.** What about the “SI (selectivity index) IC50 in HL-7702/IC50 in Snu-739” value [10] of the same compound?
**A.** 7.47

**Q.** And the “SI (selectivity index), range over Snu-368 and Snu-739” value ([10]; HL-7702 versus Snu-368 and Snu-739)?
**A.** 5.21–7.47

**Q.** And the IC50 ([10]; Homo sapiens, L02, normal liver cell, read-out: IC50 HL-7702)?
**A.** 5.68 ± 0.83 µM
